Laboratory results taken from the NIST ThermoML archive (doi:10.1021/acs.jced.5b00933).

Test: mn = molality of the nth substance listed, in mol/kg
Details: 100 kPa, Liquid; for speed of sound: Frequency=3 MHz, Sing-around technique in a fixed-path interferometer; for mass density: Vibrating tube method

O=C([O-])CC(O)(CC(=O)[O-])C(=O)[O-].[K+].[K+].[K+] [potassium citrate] + O
Details | mass density, 288.15 K [kg/m3] | mass density, 298.15 K [kg/m3] | mass density, 308.15 K [kg/m3] | mass density, 318.15 K [kg/m3] | speed of sound, 288.15 K [m/s] | speed of sound, 298.15 K [m/s] | speed of sound, 308.15 K [m/s] | speed of sound, 318.15 K [m/s]
m1 = 0.2 | 1036.81 | 1034.22 | 1030.82 | 1026.73 | 1505.5 | 1533 | 1553.9 | 1568.9
m1 = 0.4 | 1073.44 | 1070.41 | 1066.68 | 1062.34 | 1544.3 | 1569.1 | 1587.9 | 1601.3
m1 = 0.6 | 1128.01 | 1124.42 | 1120.28 | 1115.69 | 1604 | 1625.9 | 1641.7 | 1652.5
